Experiment: Dissolution of hydrocortisone in DCM of the coating suspension
Format: physicochemical
Settings: suspension in PLGA/dichloromethane for SAS coating
From the text: An exemplary processing protocol according to the present disclosure is as follows. The precipitation chamber is first charged with SC CO2. After the predetermined operating conditions (temperature and pressure) are reached, a steady flow of CO2 is established by adjusting the metering valve and the metering pump. The flow rate of CO2 was usually less than 3.0 standard liters per minute (SLPM). PLGA and hydrocortisone (HC) are then weighed and mixed into dichloromethane (DCM) to produce a suspension with the desired polymer concentration and PLGA to HC ratio. The suspension-so-produced is then injected at a flow rate of 0.8 ml/min into the high pressure chamber through the capillary nozzle by using an HPLC pump (Beckman, 110B) for about 10 minutes. After spraying, fresh CO2 is supplied continuously to purge the chamber with about 1 equivalent volume of CO2 in order to remove any remaining dichloromethane. After purging, the precipitation chamber is slowly depressurized and the coated drug particles collected for characterization.
Initially, reference is made to FIG. 18 wherein SEM images of the untreated hydrocortisone particles employed in the experimental studies are shown. Hydrocortisone is seen to be in crystal form with defined facets and sharp edges. […] The coated particles have a different shape (morphology) and no clear sharp edges when compared with the uncoated drug particles. […]

For C[C@]12CCC(=O)C=C1CC[C@@H]1[C@@H]2[C@@H](O)C[C@@]2(C)[C@H]1CC[C@]2(O)C(=O)CO [hydrocortisone, Hydrocortisone], which “hydrocortisone dissolved in DCM, share of the total” value is on record?
Its value is “about 17%”.

From patent US7537803B2, “Polymer coating/encapsulation of nanoparticles using a supercritical antisolvent process” (New Jersey Institute of Technology, priority 2003, dated 2009)
